Test results as given in ChEMBL document CHEMBL1144405, “Synthesis and cellular studies of nonaggregated water-soluble phthalocyanines” (J Med Chem, 2005).
pIC50: −log10 of the molar value.

What was measured:
V79 = assay: Percent of cell viability for the compound was measured in hamster V79 cells; type: functional, Cricetulus griseus
HEp-2 [1] = assay: Percent of cell viability for the compound was measured in human HEp2 cells; type: functional
HEp-2 [2] = assay: Inhibitory concentration was measured against human HEp2 cells; upon exposure to light (1 J/cm**2); type: functional, cell-based; settings: HEp-2, light or radiation study
HEp2 (human) = assay: Inhibitory concentration was measured against human HEp2 cells; upon exposure to light (1 J/cm**2); settings: HEp2, light or radiation study

Structure (SMILES) | Viability (V79) | Viability (HEp-2 [1]) | pIC50 (HEp-2 [2]) | pIC50 (HEp2 (human))
O=C([O-])c1cc(Oc2cc3c(cc2Oc2cc(C(=O)[O-])cc(C(=O)O)c2)-c2nc-3nc3[nH]c(nc4nc(nc5[nH]c(n2)c2cc(Oc6cc(C(=O)[O-])cc(C(=O)[O-])c6)c(Oc6cc(C(=O)[O-])cc(C(=O)O)c6)cc52)-c2cc(Oc5cc(C(=O)[O-])cc(C(=O)O)c5)c(Oc5cc(C(=O)[O-])cc(C(=O)O)c5)cc2-4)c2cc(Oc4cc(C(=O)[O-])cc(C(=O)O)c4)c(Oc4cc(C(=O)[O-])cc(C(=O)[O-])c4)cc32)cc(C(=O)[O-])c1.[Na+].[Na+].[Na+].[Na+].[Na+].[Na+].[Na+].[Na+].[Na+].[Zn+2] | 80% | 80% | 5.35 | 5.35
O=C(O)c1cc(Oc2cc3c(cc2Oc2cc(C(=O)O)cc(C(=O)O)c2)-c2nc-3nc3[n-]c(nc4nc(nc5[n-]c(n2)c2cc(Oc6cc(C(=O)O)cc(C(=O)O)c6)c(Oc6cc(C(=O)O)cc(C(=O)O)c6)cc52)-c2cc(Oc5cc(C(=O)O)cc(C(=O)O)c5)c(Oc5cc(C(=O)O)cc(C(=O)O)c5)cc2-4)c2cc(Oc4cc(C(=O)O)cc(C(=O)O)c4)c(Oc4cc(C(=O)O)cc(C(=O)O)c4)cc32)cc(C(=O)O)c1.[Zn+2] | > 80% | 80% | – | –
O=C([O-])c1cc(Oc2cc3c(cc2Oc2cc(C(=O)[O-])cc(C(=O)[O-])c2)-c2nc-3nc3[nH]c(nc4nc(nc5[nH]c(n2)c2cc(Oc6cc(C(=O)[O-])cc(C(=O)[O-])c6)c(Oc6cc(C(=O)[O-])cc(C(=O)[O-])c6)cc52)-c2cc(Oc5cc(C(=O)[O-])cc(C(=O)[O-])c5)c(Oc5cc(C(=O)[O-])cc(C(=O)[O-])c5)cc2-4)c2cc(Oc4cc(C(=O)[O-])cc(C(=O)[O-])c4)c(Oc4cc(C(=O)[O-])cc(C(=O)[O-])c4)cc32)cc(C(=O)[O-])c1.[Na+].[Na+].[Na+].[Na+].[Na+].[Na+].[Na+].[Na+].[Na+].[Na+].[Na+].[Na+].[Na+].[Na+].[Na+].[Na+].[Zn] | 80% | 80% | – | –
